Data from patent US6066656A, “2,5-diamino-3,4-disubstituted-1,6-diphenylhexane isosteres comprising benzamide, sulfonamide and anthranilamide subunits and methods of using same” (The United States of America as represented by the …, priority 1998, dated 2000).
Read-outs that look alike come from different tables or passages of the source.

Key:
[1] = tested on: viral activity; conditions: comparison compounds in clinical trials; cited from earlier work
[2] = target: T1, HIV-1 protease (wild-type, WT) (Human immunodeficiency virus type 1 group M subtype B, UniProt P04585); assay: Inhibition of purified wild-type HIV-1 protease (fluorogenic substrate cleavage), Ki and % inhibition; assay type: biochemical
T1 construct: purified HIV-1 protease (wild-type, WT)
Procedure: (§1) The inhibition constants (Ki) for the compounds of the above examples were determined using purified HIV-1 protease (wild-type, WT) (Tables I, II, IV and V) and R8Q and V82I mutant HIV-1 proteases (Table III). Ki is an inhibition constant of a given compound as derived by enzyme kinetics. A low Ki represents a high affinity of the compound for the enzyme, i.e., tight binding or low dissociation. Inhibition of the cleavage was assayed using a fluorogenic substrate available from Molecular Probes, Inc., Eugene, Oreg., and described in Kageyama et al., Antimicrob. Agents. Chemother., 37, 272 (1993), and a fluorogenic substrate available from Bachem California, Torrance, Calif., and described in Kageyama et al. (1993), supra. The inhibitory potencies of these compounds are set forth in Tables I-V. Percent inhibition is the percentage inhibition of an enzyme's activity by a given compound at a given concentration.

[3] = target: T2, R8Q mutant HIV-1 protease (Human immunodeficiency virus type 1 group M subtype B, UniProt P04585, R496Q); assay: Inhibition of R8Q mutant HIV-1 protease (fluorogenic substrate cleavage); assay type: biochemical; conditions: Table III
T2 construct: R8Q and V82I mutant HIV-1 proteases
Procedure: as §1

[4] = target: T3, V82I mutant HIV-1 protease (Human immunodeficiency virus type 1 group M subtype B, UniProt P04585, V570I); assay: Inhibition of V82I mutant HIV-1 protease (fluorogenic substrate cleavage); assay type: biochemical; conditions: Table III
T3 construct: R8Q and V82I mutant HIV-1 proteases
Procedure: as §1

[5] = Table V, spread wrapped on the next line: DN-1 ± 0.6, DN-4 ± 0.09, DN-5 ± 1.3, DN-6B ± 0.3, DN-10 ± 0.007, DN-11 ± 0.1, read-out: Ki
[6] = Table III, wild-type HIV protease, read-out: Ki WT

CC(C)c1nc(CN(C)C(=O)N[C@H](C(=O)N[C@@H](Cc2ccccc2)C[C@H](O)[C@H](Cc2ccccc2)NC(=O)OCc2cncs2)C(C)C)cs1 [ABT538]
EC50 [1]: 0.036 µM

O=C(N[C@@H](Cc1ccccc1)[C@H](O)[C@H](O)[C@H](Cc1ccccc1)NC(=O)c1cccc(OCCOc2ccccc2)c1)c1cccc(OCCOc2ccccc2)c1 [Compound 19]
inhibition at 10 µM ([2]; read-out: % inhib): 9%

O=C(Cc1ccccc1)N[C@@H](Cc1ccccc1)[C@H](O)[C@H](O)[C@H](Cc1ccccc1)NC(=O)Cc1ccccc1 [Compound 5]
inhibition of HIV PR (in words) [2]: weak inhibitor of HIV PR
inhibition at 10 µM ([2]; read-out: % inhib): 38%

Cc1ccc(C(=O)N[C@@H](Cc2ccccc2)[C@H](O)[C@H](O)[C@H](Cc2ccccc2)NC(=O)c2ccc(C)c(O)c2)cc1O [Compound 16]
Ki ([2]; Table II, read-out: Ki): 0.132 µM

O=C(N[C@@H](Cc1ccccc1)[C@H](O)[C@H](O)[C@H](Cc1ccccc1)NC(=O)c1cc(O)c2ccccc2n1)c1cc(O)c2ccccc2n1 [Compound 21]
inhibition of HIV PR (in words) [2]: diminished binding
inhibition at 10 µM ([2]; read-out: % inhib): 31%

O=C(N[C@@H](Cc1ccccc1)[C@H](O)[C@H](O)[C@H](Cc1ccccc1)NC(=O)c1cccc(O)c1)OCc1ccccc1 [DN-1]
Ki [2, 5]: 0.0119 µM

O=C(Nc1ccccc1C(=O)N[C@@H](Cc1ccccc1)[C@H](O)[C@H](O)[C@H](Cc1ccccc1)NC(=O)c1cccc(O)c1)OCc1ccccn1 [DN-4]
Ki [2, 5]: 0.0017 µM

O=C(N[C@@H](Cc1ccccc1)[C@@H](O)[C@H](O)[C@H](Cc1ccccc1)NC(=O)c1cccc(O)c1)c1cccc(O)c1 [Compound 8]
Ki ([2]; Table II, read-out: Ki): 0.079 µM

O=C(N[C@@H](Cc1ccccc1)[C@@H](O)[C@H](O)[C@H](Cc1ccccc1)NC(=O)c1ccccc1)c1ccccc1 [Compound 6]
inhibition at 10 µM ([2]; read-out: % inhib): 55%

O=C(N[C@@H](Cc1ccccc1)[C@H](O)[C@H](O)[C@H](Cc1ccccc1)NC(=O)c1cccc(O)c1)c1cccc(O)c1 [Compound 7, (2S,3R,4S,5S)-2,5-bis[((3-hydroxyphenyl)carbonyl)amino]-3,4-dihydroxy-1,6-diphenyl-hexane]
inhibition of HIV PR (in words) [2]: potent inhibitors of HIV PR
Ki ([2]; Table II, read-out: Ki): 0.022 µM
Ki [2, 6]: 0.022 µM
relative potency, R,S vs R,R diol core (compounds 7 and 8) ([2]; in general, R,S core compared with R,R core): three times more potent
Ki ([2]; read-out: Ki): 0.022 µM
Ki [3]: 0.036 µM
Ki [4]: 0.051 µM

Cc1cc(O)cc(C(=O)N[C@@H](Cc2ccccc2)[C@H](O)[C@H](O)[C@H](Cc2ccccc2)NC(=O)c2cc(C)cc(O)c2)c1 [Compound 14]
Ki ([2]; Table II, read-out: Ki): 1 µM

O=C(N[C@@H](Cc1ccccc1)[C@H](O)[C@H](O)[C@H](Cc1ccccc1)NC(=O)c1cccc([N+](=O)[O-])c1)c1cccc([N+](=O)[O-])c1 [Compound 22]
inhibition at 10 µM ([2]; read-out: % inhib): 40%

O=C(N[C@@H](Cc1ccccc1)[C@@H](O)[C@H](O)[C@H](Cc1ccccc1)NC(=O)c1ccc(O)cc1)c1ccc(O)cc1 [Compound 10]
Ki ([2]; Table II, read-out: Ki): 0.33 µM
Ki ([2]; read-out: Ki): 0.33 µM

O=C(Nc1ncccc1C(=O)N[C@@H](Cc1ccccc1)[C@H](O)[C@H](O)[C@H](Cc1ccccc1)NC(=O)c1cccnc1NC(=O)OCc1ccccc1)OCc1ccccc1 [Compound 30]
Ki ([2]; Table IV, read-out: Ki): 0.003 µM

Nc1cccc(C(=O)N[C@@H](Cc2ccccc2)[C@H](O)[C@H](O)[C@H](Cc2ccccc2)NC(=O)c2cccc(N)c2)c1 [Compound 17]
inhibition of HIV PR (in words) [2]: potent inhibitors of HIV PR
Ki ([2]; Table II, read-out: Ki): 0.005 µM
Ki [2, 6]: 0.005 µM
Ki ([2]; read-out: Ki): 0.005 µM
Ki [3]: 0.02 µM
Ki [4]: 0.109 µM

CSC[C@H](NC(=O)COc1cccc2cnccc12)C(=O)N[C@@H](Cc1ccccc1)[C@H](O)C(=O)N1CSC[C@H]1C(=O)NC(C)(C)C [KNI272]
EC50 [1]: 0.0042 µM

O=C(NC(Cc1ccccc1)C(O)C(O)C(Cc1ccccc1)NC(=O)c1cccc(O)c1)c1cccc(O)c1 (stereo not shown) [Compound 9]
Ki ([2]; Table II, read-out: Ki): 0.043 µM

Cc1cccc(C(=O)N[C@@H](Cc2ccccc2)[C@H](O)[C@H](O)[C@H](Cc2ccccc2)NC(=O)c2cccc(C)c2NC(=O)OCc2ccccc2)c1NC(=O)OCc1ccccc1 [Compound 31]
Ki ([2]; Table IV, read-out: Ki): 0.012 µM

O=C(Nc1ccccc1C(=O)N[C@@H](Cc1ccccc1)C[C@H](O)[C@H](Cc1ccccc1)NC(=O)c1ccccc1NC(=O)OCc1ccccc1)OCc1ccccc1 [Compound 35]
Ki ([2]; Table IV, read-out: Ki): 0.0012 µM

O=C(Nc1c(O)cccc1C(=O)N[C@@H](Cc1ccccc1)[C@H](O)[C@H](O)[C@H](Cc1ccccc1)NC(=O)c1cccc(O)c1NC(=O)OCc1ccccc1)OCc1ccccc1 [Compound 33]
Ki ([2]; Table IV, read-out: Ki): 0.02 µM

O=C(N[C@@H](Cc1ccccc1)[C@@H](O)[C@H](O)[C@H](Cc1ccccc1)NC(=O)c1cccnc1)c1cccnc1 [Compound 23]
Ki ([2]; Table II, read-out: Ki): 0.4 µM

O=C(Nc1c(Cl)cccc1C(=O)N[C@@H](Cc1ccccc1)[C@H](O)[C@H](O)[C@H](Cc1ccccc1)NC(=O)c1cccc(Cl)c1NC(=O)OCc1ccccc1)OCc1ccccc1 [Compound 32]
Ki ([2]; Table IV, read-out: Ki): 0.091 µM

CCOC(=O)Nc1ccccc1C(=O)N[C@@H](Cc1ccccc1)[C@H](O)[C@H](O)[C@H](Cc1ccccc1)NC(=O)c1ccccc1NC(=O)OCC [Compound 28]
inhibition at 10 µM ([2]; Table IV, @ 10 μM, read-out: % inhibition): 41%

O=C(CO)Nc1ccccc1C(=O)N[C@@H](Cc1ccccc1)[C@H](O)[C@H](O)[C@H](Cc1ccccc1)NC(=O)c1ccccc1NC(=O)CO [Compound 29]
Ki ([2]; Table IV, read-out: Ki): 0.041 µM

O=C(Cc1ccccc1O)N[C@@H](Cc1ccccc1)[C@H](O)[C@H](O)[C@H](Cc1ccccc1)NC(=O)Cc1ccccc1O [Compound 5b]
inhibition of HIV PR (in words) [2]: small improvements in inhibition of HIV PR
inhibition at 10 µM ([2]; read-out: % inhib): 66%

CC(C)(C)OC(=O)Nc1ccc(C(=O)N[C@@H](Cc2ccccc2)[C@@H](O)[C@@H](O)[C@H](Cc2ccccc2)NC(=O)c2ccccc2NC(=O)OCc2ccccn2)cc1 [DN-6]
inhibition at 1 µM ([2]; Table V, @ 1 μM, read-out: % inhibition (printed after % Inhib. Conc.)): 15%
% Inhib. Conc. ([2]; Table V, @ 10 NM (so in the source)): 40%

CC(C)(C)OC(=O)N[C@@H](Cc1ccccc1)[C@@H](O)[C@@H](O)[C@H](Cc1ccccc1)NC(=O)OCc1ccccc1 [DN-10]
Ki [2, 5]: 0.00309 µM

O=C(Cc1cccc(O)c1)N[C@@H](Cc1ccccc1)[C@H](O)[C@H](O)[C@H](Cc1ccccc1)NC(=O)Cc1cccc(O)c1 [Compound 5a]
inhibition of HIV PR (in words) [2]: small improvements in inhibition of HIV PR
Ki ([2]; Table I, read-out: Ki): 3 µM

O=C(N[C@@H](Cc1ccccc1)[C@@H](O)[C@H](O)[C@H](Cc1ccccc1)NC(=O)c1ccccc1O)c1ccccc1O [Compound 11]
inhibition of HIV PR (in words) [2]: dramatic loss in enzyme inhibitory potency
inhibition at 10 µM ([2]; at 10 μM, read-out: % inhibition): 66%
inhibition at 10 µM ([2]; read-out: % inhib): 66%

COCCOCCOc1cccc(C(=O)N[C@@H](Cc2ccccc2)[C@H](O)[C@H](O)[C@H](Cc2ccccc2)NC(=O)c2cccc(OCCOCCOC)c2)c1 [Compound 18]
inhibition at 10 µM ([2]; read-out: % inhib): 63%

Nc1ccc(C(=O)N[C@@H](Cc2ccccc2)[C@@H](O)[C@@H](O)[C@H](Cc2ccccc2)NC(=O)c2ccccc2NC(=O)OCc2ccccn2)cc1 [DN-6B]
Ki [2, 5]: 0.0066 µM

Nc1cccc(C(=O)N[C@@H](Cc2ccccc2)C[C@H](O)[C@H](Cc2ccccc2)NC(=O)c2cccc(N)c2)c1 [Compound 25]
inhibition of HIV PR (in words) [2]: did not improve the inhibitory potencies
Ki ([2]; Table II, read-out: Ki): 0.006 µM

CC(C)(C)OC(=O)Nc1ccc(C(=O)N[C@@H](Cc2ccccc2)[C@@H](O)[C@@H](O)[C@H](Cc2ccccc2)NC(=O)OCc2ccccc2)cc1 [DN-5]
Ki [2, 5]: 0.0158 µM

O=C(N[C@@H](Cc1ccccc1)[C@H](O)[C@H](O)[C@H](Cc1ccccc1)NC(=O)c1cc(=O)c2ccccc2o1)c1cc(=O)c2ccccc2o1 [Compound 20]
inhibition of HIV PR (in words) [2]: diminished binding
inhibition at 10 µM ([2]; read-out: % inhib): 67%

O=C(N[C@@H](Cc1ccccc1)[C@H](O)[C@H](O)[C@H](Cc1ccccc1)NC(=O)c1ccc(O)c(O)c1)c1ccc(O)c(O)c1 [Compound 12]
Ki ([2]; Table II, unit nm [sic], read-out: Ki): 0.08 µM
Ki [2, 6]: 0.08 µM
Ki [3]: 0.04 µM
Ki [4]: 0.235 µM

CC(=O)Nc1ccccc1C(=O)N[C@@H](Cc1ccccc1)[C@H](O)[C@H](O)[C@H](Cc1ccccc1)NC(=O)c1ccccc1NC(C)=O [Compound 26]
Ki ([2]; Table IV, read-out: Ki): 0.041 µM
Ki ([2]; read-out: Ki): 0.041 µM

O=C(Nc1ccccc1C(=O)N[C@@H](Cc1ccccc1)[C@@H](O)[C@@H](O)[C@H](Cc1ccccc1)NC(=O)c1cccc(O)c1)OCc1ccccn1 [ND-4]
Ki [2, 5]: 0.0007 µM

Cc1ccc(O)cc1C(=O)N[C@@H](Cc1ccccc1)[C@H](O)[C@H](O)[C@H](Cc1ccccc1)NC(=O)c1cc(O)ccc1C [Compound 15]
Ki ([2]; Table II, read-out: Ki): 0.075 µM
Ki [2, 6]: 0.075 µM
Ki ([2]; read-out: Ki): 0.075 µM
Ki [3]: 0.089 µM
Ki [4]: 0.054 µM

O=C(N[C@@H](Cc1ccccc1)[C@H](O)[C@H](O)[C@H](Cc1ccccc1)NC(=O)c1cc(O)cc(O)c1)c1cc(O)cc(O)c1 [Compound 13]
Ki ([2]; Table II, read-out: Ki): 0.7 µM

O=C(N[C@@H](Cc1ccccc1)C[C@H](O)[C@H](Cc1ccccc1)NC(=O)c1cccc(O)c1)c1cccc(O)c1 [Compound 24]
inhibition of HIV PR (in words) [2]: did not improve the inhibitory potencies
Ki ([2]; Table II, read-out: Ki): 0.025 µM
Ki [2, 6]: 0.025 µM
Ki [3]: 0.034 µM
Ki [4]: 0.096 µM
